This is an account of results in patent US20230287083A1, “CD1 PEPTIDE-EPITOPE FOR USE IN THE TREATMENT OF A DISEASE CAUSED BY AN INT[…]” (priority 2020, published 2023).

One data set deals with HSV. As to the kind of experiment: Cellular immune response towards live-attenuated HSV vaccine after peptide pre-immunization. The class given is in vivo, BALB/c mice. The note with it: one month after last injection. Here is the method: BALB/c mice are immunized in footpath with 100 μg of peptide of SEQ ID NO:5 emulsified in complete Freund's adjuvant, and this injection is repeated once after an interval of 2 weeks, the second injection being made in incomplete Freund's adjuvant. A control group of BALB/c mice is treated with adjuvant alone.
All mice then receive a commercial preparation of live-attenuated HSV on 2 occasions separated by one month.
One month after the last injection, the immune response towards the vaccine is compared between the 2 groups.

The test system of data set [1] is NS5. The data set is described as follows: NS5-specific activation of splenic CD3+ lymphocytes (3H-thymidine incorporation) after peptide pre-injection and NS5 vaccination. Format: in vivo, C57BL/6 mice. Here is the method: (§1) Peptide of SEQ ID NO:1 is emulsified in complete Freund's adjuvant and injected subcutaneously at a dose of 100 μg in a series of C57BL/6 mice, followed after 2 weeks by the same injection in incomplete Freund's adjuvant. A control group is injected according to the same schedule with adjuvant alone.
(§2) Two weeks after the last injection both groups of mice are treated by a subcutaneous injection of NS5 protein in alum, repeated every 2 weeks four times.
(§3) The spleen of all mice is obtained one month after the last injection and the population of CD3+ lymphocytes isolated by FACS sorting.
Cells are then maintained in culture in the presence of antigen-presenting cells loaded with NS5 and the proportion of activated cells numbered after 6 days by incorporation of 3H-thymidine.

The test system of data set [2] is NS5. As to the kind of experiment: Detection of NS5-specific NKT cells (PLZF staining) with JAWS2 presenting cells. The class given is in vivo, C57BL/6 mice. The note with it: CD3+ cells incubated with JAWS2 presenting cells. Here is the method:
as §1, §2, §3
In parallel experiments CD3+ cells are incubated with JAWS2 as presenting cells.

The subject of data set [3] is NS5. The data set is described as follows: Same NS5 experiment repeated in BALB/c mice. Format: in vivo.
Data set [4] relates to SARS-CoV-2 S protein. The data set is described as follows: Specific anti-S protein antibody titers and isotypes in serum. The class given is in vivo, C57BL/6 mice. The note with it: for specific anti-S protein antibody titers: vs control. As to the method: (§4) Peptide of SEQ ID NO:3 is used to immunize C57BL/6 mice at a dose of 100 μg emulsified in complete Freund's adjuvant, followed by a second injection of 100 μg in incomplete Freund's adjuvant 3 weeks later. A control group receives only the adjuvant.
(§5) Both groups of mice are then immunized with 100 μg of S protein in alum, administered at 2-week intervals, starting 3 weeks after injection of peptide of SEQ ID NO:3 (or adjuvant), for a total of 4 injections at 2 weeks interval.
(§6) The immune response towards S protein is then evaluated on splenocytes retrieved either 2 or 6 months after the last injection and titers of specific antibodies are evaluated on serum.

Data set [5] deals with SARS-CoV-2 S protein. As to the kind of experiment: Splenocyte immune response towards S protein after peptide pretreatment and S protein immunization. Format: in vivo, C57BL/6 mice. As to the method: as §4, §5, §6
The next data set has as its system Coxsackie B4-V. The data set is described as follows: Coxsackie B4-V infection, pancreas cellular infiltration / pancreatitis. The class given is in vivo, BALB/c mice. As to the method:
BALB/c mice are immunized by footpath injection of 100 μg of peptide of SEQ ID NO:2 emulsified in Freund's adjuvant, on 2 occasions at a 2-weeks interval. A control group is injected with the adjuvant alone.
All mice are then immunized with the full polyprotein adsorbed on alum, using 100 μg per injection, for a total of 4 injections administered at an interval of 2 weeks.
Three weeks after the last injection, all mice are infected with 50 PFU of the B4-V strains in peritoneum.
Within 3 days after infection, the pancreas of 50% of the mice is isolated and examined for cellular infiltration. All mice in the control group show massive infiltration by mononuclear cells in the acini.

Data set [6] deals with hemagglutinin from influenza A virus. On the set-up: species or system C57BL/6 mice. The note with it: mouse, in vivo.
Data set [7] shares this test system. On the set-up: species or system C57BL/6 mice. The note with it: mouse, in vivo. This is another data set of the same source.
Data set [8] shares this test system. On the set-up: species or system C57BL/6 mice. The settings on record: mouse, in vivo. This is another data set of the same source.
The mark [9] stands for this setting: C57BL/6, vs adjuvant-only control.

Residues, ends and D or L forms follow the SMILES beside them.

In the case of `CC(C)C[C@H](NC(=O)[C@H](Cc1c[nH]cn1)NC(=O)[C@H](CC(C)C)NC(=O)[C@H](Cc1ccccc1)NC(=O)[C@H](CC(C)C)NC(=O)[C@@H](N)C(C)C)C(=O)N[C@@H](Cc1ccc(O)cc1)C(=O)N[C@@H](CC(C)C)C(=O)N[C@@H](Cc1ccccc1)C(=O)N[C@@H](CC(C)C)C(=O)N[C@H](C(=O)O)[C@@H](C)O` [peptide of SEQ ID NO:5, VL-FLHLYLF-LT] (H-VLFLHLYLFLT-OH), the “cells sharing a cytotoxicity potential (CD8+ T cells, NK cells, NKT cells)” value in the data set on HSV is “significant expansion”.

Consider AG-HGQVDNF-SL [peptide of SEQ ID NO:1], for which the “total number of NS5-specific cells” value in the data set on NS5 [1] (C57BL/6, 100 μg peptide s.c. in CFA then IFA before NS5 in alum, vs adjuvant-only control) is listed as “significantly higher”. In the data set on NS5 [1] (setting [9]), the “number of NS5-specific CD4 cells” value is “higher number is observed” and the “number of NS5-specific CD8 cells” value is “highly significant”. Also, the “variation in numbers of CD4, CD8 and NKT cells between individuals and between strains” value with NS5 [1] (C57BL/6 and BALB/c, large variations in control groups) is reported as “very little variation”. Further, the “NS5-specific NKT cells detected by PLZF staining” value in the data set with NS5 [2] is on record as “found only in the group of mice which has been pre-sensitized with peptide of SEQ ID NO:1”. Also, in the data set on NS5 [3], the “result of the same experiment in BALB/c mice” value is reported as “essentially the same results”.

In the case of “ATR FASVYAW NRK (FASVYAWNRK) [peptide of SEQ ID NO:3]”, the “specific anti-S protein antibody titers” value in the data set on SARS-CoV-2 S protein [4] (2 months after end of immunization) and in the data set on SARS-CoV-2 S protein [4] (6 months after end of immunization) was “significantly higher titers” in each case. The “isotypic distribution of anti-S protein antibodies” value with SARS-CoV-2 S protein [4] (2 months, vs control group) is “dramatic shift from IgG1 in the control group towards IgG2a”; with SARS-CoV-2 S protein [4] (after 6 months) it was “shift was maintained”. For the same compound, the “number of CD8+ T cells relative to CD4+ T cells” value in the data set on SARS-CoV-2 S protein [5] (2 months after last injection, reverse in control group) is listed as “outweigh the number of CD4+ T cells”; in the data set with SARS-CoV-2 S protein [5] (6 months after last injection), “same trend towards preferential CD8+ T cells”. In addition, in the data set with SARS-CoV-2 S protein [5] (vs control mice), the “numbers of CD3+ lymphocytes towards protein S” value was “significantly higher numbers”.

Turning to EK-FRDIRGF-LA [peptide of SEQ ID NO:2], the pancreatitis signs result in the data set on Coxsackie B4-V (day 10 after infection, control: persisting infiltration, disappearance of acini structure) is given as “complete resolution of pancreatitis signs”. The “pancreas cellular infiltration by mononuclear cells in the acini” value in the data set on Coxsackie B4-V (within 3 days after infection with 50 PFU B4-V, control: massive infiltration) is given as “moderate infiltration”.

Take GL-FGAIAGF-IE [peptide of SEQ ID NO:4]: the “type of immune response towards hemagglutinin (CD8+, NK and NKT cells)” value in [6] was “dominated by a Th1-like and cytotoxic response”. Further, the “ratio of IFN-gamma over IL-4 production” value in data set [7] is “high ratio of IFN-gamma over IL-4”. The “isotype distribution of anti-hemagglutinin antibodies in serum” value in [8] was “high concentrations of IgG2a”.
